Test results taken from PMC9743090, “Induction of Ferroptosis in Glioblastoma and Ovarian Cancers by a New Pyrrole Tubulin Assembly Inhibitor” (Journal of Medicinal Chemistry, 2022).
Values joined by “and” are separate entries in the source; they are usually repeats but may differ in a detail not shown here. Identical values can stand only once.

Tests used:
tubulin = experiment: Inhibition of [3H]colchicine binding to tubulin; conditions: inhibitor at 1:5:5 μM
Experimental: The assembly reaction mixtures contained 0.8 M monosodium glutamate (pH 6.6 with HCl in a 2 M stock solution), 10 μM tubulin, 4% (v/v) DMSO, and varying concentrations of the drug. Following a 15 min preincubation at 30 °C, samples were chilled on ice, GTP to 0.4 mM was added, and turbidity development was followed at 350 nm in a temperature-controlled recording spectrophotometer for 20 min at 30 °C. The extent of reaction was measured. Full experimental details were previously described.[63] For the colchicine binding assay, reaction mixtures contained 1.0 μM tubulin, 5.0 μM [^3H]colchicine, and 5.0 or 1.0 μM inhibitor and were incubated for 10 min at 37 °C. Complete details were described previously.[64]

U-87 MG GBM cells = experiment: U-87 MG proliferation assay (cell count, Trypan Blue); assay type: cell-based; conditions: Homo sapiens, 48 h incubation, read-out: IC50 cell viability U-87 MG
Experimental: The methodology for the evaluation of the growth of human MCF-7 breast carcinoma cells was previously described, except that cells were grown for 96 h for IC50 determinations.[66] U-87 MG and OVCAR-3 proliferation assays were performed plating 10^4 cells/cm^2 in a Multiwell 24. The day after, cells were treated with compound 15, and DMSO was used as a control. Cells were counted 48 h later with a Bürker counting chamber, after dilution in TrypanBlue (#T6146 Sigma-Aldrich).
All experiments were performed multiple times to reach statistical significance, as specified in the figure legends. Statistical analysis was performed using GraphPad Prism version 7.0 for Mac. IC50 values were calculated by using a nonlinear regression formula, using the percentage of cells number and the logarithmic value of drug concentrations. Data were analyzed with analysis of variance (one-way ANOVA test). Data with *p < 0.05 were considered statistically significant.

[1] = system: PARP cleavage in U-87 MG cells; experiment: PARP cleavage by western blot in U-87 MG cells; assay type: cell-based, human; conditions: immunoblotting
Experimental: Western blotting was performed as previously described[68] by lysing cells in denaturing buffer sodium dodecyl sulfate (SDS)–urea. Extracts were sonicated, their protein quantified, and aliquots were loaded into an SDS–polyacrylamide gel. After electrophoresis, the proteins in the gel were transferred onto a nitrocellulose membrane (cat. no. NBA085C001EA, PerkinElmer), which then was blocked with 5% milk in TBS-T (Tris HCl with 0.1% Tween 20) and incubated with primary antibodies overnight: PARP antibody diluted 1:1000 (cat. no. 9542S CST) and actin antibody diluted 1:10,000 (cat. no. A5441, Sigma Aldrich). The next day, the membrane was extensively washed with TBS-T and incubated with horse radish peroxidase (HRP)-conjugated secondary antibodies diluted in the 5% milk solution. Detection of the HRP signal was performed using ECL (cat. no. K-12045-D50, Advansta).

[2] = Metabolic stability in human liver microsomes; assay type: in vitro ADME
Experimental: (§1) Mouse (Sigma Aldrich, CD-1 male, pooled) and human microsomes (Sigma Aldrich, human, pooled) at 0.5 mg/mL were preincubated with the test compound 15 dissolved in DMSO at 1 μM in phosphate buffer 50 mM, pH 7.4, and 3 mM MgCl2 for 10 min at 37 °C. The reaction was then started by adding the cofactor mixture solution (NADP, glucose-6-phosphate, glucose-6-phosphate dehydrogenase in 2% NaHCO3). Samples were taken at 0, 10, 30, 45, and 60 min and added to acetonitrile to stop the reaction. Samples were then centrifuged, and the supernatant was analyzed by LC–MS/MS to quantify the amount of the compound. A control sample without the cofactor was always added to check the chemical stability of the test compound. […] A fixed concentration of verapamil was added in every sample as an internal standard for LC–MS/MS analyses. The percentage of the area of the test compound remaining at the various incubation times was calculated with respect to the area of the compound at time 0 min.
(§2) The rate constant, k (min^–1), derived for the exponential decay equation (peak area/IS vs time), was used to calculate the rate of Cli.
(§3) Samples were analyzed under the following conditions: UPLC Waters coupled with an API 3200 triple-quadrupole (ABSciex); eluents, (phase A) 95% water, 5% acetonitrile + 0.1% HCOOH, (phase B) 5% water, 95% acetonitrile + 0.1% HCOOH; flow rate, 0.3 mL/min; column, Gemini-Nx 5 μm C18 110A (50 × 2.00 mm) at 35 °C; injection volume, 10 μL. Source conditions ESI positive: T 400 °C, Gas 1 30, Gas 2 35, CUR 30, IS 5500, CAD 5.

[3] = Metabolic stability in mouse liver microsomes; assay type: in vitro ADME
Experimental: as §1, §2, §3

**Q.** For `COc1cc(C(=O)c2cn(-c3ncccn3)cc2-c2ccco2)cc(OC)c1OC` [Compound 15, (4-(Furan-2-yl)-1-(pyrimidyl-2-yl)-1H-pyrrol-3-yl)(3,4,5-trimethoxyphenyl)methanone], which “Inhib. colch. binding 1-5-5 (% ± SD)” value (tubulin) is on record?
**A.** 88 ± 0.4%

**Q.** And the IC50 (U-87 MG GBM cells)?
**A.** 10.1 nM

**Q.** What about the “concentration from which PARP cleavage occurs” value [1] of the same molecule?
**A.** ≥ 20 nM

**Q.** What about the “Cli ± SD” value ([2]; HLM 0.5 mg/mL, 1 μM, n = 2) of the same molecule?
**A.** 36 μL/min/mg protein and 35.9 ± 0.2 μL/min/mg protein

**Q.** And the half-life at 1 h, 1 µM ([2]; human, liver microsomes, pH 7.4, HLM 0.5 mg/mL, 1 μM, n = 2, read-out: t1/2 ± SD)?
**A.** 38.7 ± 0.2 min

**Q.** And the microsomal CLint at 1 μM ([2]; pH 7.4, human liver microsomes, read-out: intrinsic clearance classification)?
**A.** 1.8 to 48 µL/min/mg

**Q.** And the “Cli ± SD” value ([3]; MLM 0.5 mg/mL, 1 μM, n = 2)?
**A.** 461 μL/min/mg protein and 461.1 ± 45.5 μL/min/mg protein

**Q.** What about the half-life at 1 h, 1 µM ([3]; male, CD-1, mouse, liver microsomes, pH 7.4, MLM 0.5 mg/mL, 1 μM, n = 2, read-out: t1/2 ± SD) of the same molecule?
**A.** 3 ± 0.3 min

**Q.** What about the microsomal CLint at 1 μM ([3]; male, CD-1, pH 7.4, mouse liver microsomes, read-out: intrinsic clearance classification) of the same molecule?
**A.** > 66 µL/min/mg
